For 40 compounds, IC50 and Ki results are on record in ChEMBL document CHEMBL1129352, “Synthesis and biological evaluation of new imidazole, pyrimidine, and purine derivatives and analogs as inhibitors of xanthine oxidase” (J Med Chem, 1996).

Test [1] has as its target T1, Xanthine dehydrogenase/oxidase (Homo sapiens, UniProt P47989). In words: Inhibitory activity against Xanthine Oxidase; Inactive.
The target of test [2] is T1, Xanthine dehydrogenase/oxidase. In words: Inhibitory activity against Xanthine Oxidase.
The target in test [3] is Xanthine dehydrogenase/oxidase (Bos taurus) (UniProt P80457). In words: Inhibitory activity against Xanthine Oxidase.
Xanthine dehydrogenase/oxidase (Bos taurus), sequence (P80457 whole entry, looked up): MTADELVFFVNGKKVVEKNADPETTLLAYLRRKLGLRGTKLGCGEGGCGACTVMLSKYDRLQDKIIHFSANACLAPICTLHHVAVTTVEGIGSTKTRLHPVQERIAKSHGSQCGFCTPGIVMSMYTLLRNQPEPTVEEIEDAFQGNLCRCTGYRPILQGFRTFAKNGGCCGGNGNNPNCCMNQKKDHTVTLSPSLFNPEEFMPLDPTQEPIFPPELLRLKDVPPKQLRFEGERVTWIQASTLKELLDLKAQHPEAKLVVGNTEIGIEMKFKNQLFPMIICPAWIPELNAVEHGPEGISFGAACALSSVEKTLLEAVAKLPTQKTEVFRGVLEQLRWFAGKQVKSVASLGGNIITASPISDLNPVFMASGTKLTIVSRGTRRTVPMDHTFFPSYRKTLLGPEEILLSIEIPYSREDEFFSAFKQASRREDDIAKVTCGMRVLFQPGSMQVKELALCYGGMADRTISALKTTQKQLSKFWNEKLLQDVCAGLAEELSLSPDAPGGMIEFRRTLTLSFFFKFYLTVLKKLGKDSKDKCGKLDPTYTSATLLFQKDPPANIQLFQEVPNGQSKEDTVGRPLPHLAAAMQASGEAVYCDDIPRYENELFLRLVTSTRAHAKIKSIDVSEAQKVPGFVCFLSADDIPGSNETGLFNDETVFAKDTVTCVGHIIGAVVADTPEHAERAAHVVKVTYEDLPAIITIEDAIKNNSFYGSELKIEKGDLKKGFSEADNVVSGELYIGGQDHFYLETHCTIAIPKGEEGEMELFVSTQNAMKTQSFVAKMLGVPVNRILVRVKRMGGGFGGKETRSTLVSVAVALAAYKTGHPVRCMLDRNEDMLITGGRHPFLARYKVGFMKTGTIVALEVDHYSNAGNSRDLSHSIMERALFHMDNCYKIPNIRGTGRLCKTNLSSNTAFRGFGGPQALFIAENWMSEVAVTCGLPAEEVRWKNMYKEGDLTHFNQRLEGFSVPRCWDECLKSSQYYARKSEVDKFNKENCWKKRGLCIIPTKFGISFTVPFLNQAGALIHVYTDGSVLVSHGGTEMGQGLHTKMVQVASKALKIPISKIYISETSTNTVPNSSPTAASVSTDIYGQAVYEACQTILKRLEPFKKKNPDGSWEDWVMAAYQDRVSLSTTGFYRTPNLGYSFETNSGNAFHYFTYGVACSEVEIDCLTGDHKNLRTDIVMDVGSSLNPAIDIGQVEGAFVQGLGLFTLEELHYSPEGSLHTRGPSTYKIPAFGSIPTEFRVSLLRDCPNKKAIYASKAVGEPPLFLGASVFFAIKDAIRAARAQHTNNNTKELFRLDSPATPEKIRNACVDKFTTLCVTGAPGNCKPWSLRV

T1 sequence (P47989 whole entry): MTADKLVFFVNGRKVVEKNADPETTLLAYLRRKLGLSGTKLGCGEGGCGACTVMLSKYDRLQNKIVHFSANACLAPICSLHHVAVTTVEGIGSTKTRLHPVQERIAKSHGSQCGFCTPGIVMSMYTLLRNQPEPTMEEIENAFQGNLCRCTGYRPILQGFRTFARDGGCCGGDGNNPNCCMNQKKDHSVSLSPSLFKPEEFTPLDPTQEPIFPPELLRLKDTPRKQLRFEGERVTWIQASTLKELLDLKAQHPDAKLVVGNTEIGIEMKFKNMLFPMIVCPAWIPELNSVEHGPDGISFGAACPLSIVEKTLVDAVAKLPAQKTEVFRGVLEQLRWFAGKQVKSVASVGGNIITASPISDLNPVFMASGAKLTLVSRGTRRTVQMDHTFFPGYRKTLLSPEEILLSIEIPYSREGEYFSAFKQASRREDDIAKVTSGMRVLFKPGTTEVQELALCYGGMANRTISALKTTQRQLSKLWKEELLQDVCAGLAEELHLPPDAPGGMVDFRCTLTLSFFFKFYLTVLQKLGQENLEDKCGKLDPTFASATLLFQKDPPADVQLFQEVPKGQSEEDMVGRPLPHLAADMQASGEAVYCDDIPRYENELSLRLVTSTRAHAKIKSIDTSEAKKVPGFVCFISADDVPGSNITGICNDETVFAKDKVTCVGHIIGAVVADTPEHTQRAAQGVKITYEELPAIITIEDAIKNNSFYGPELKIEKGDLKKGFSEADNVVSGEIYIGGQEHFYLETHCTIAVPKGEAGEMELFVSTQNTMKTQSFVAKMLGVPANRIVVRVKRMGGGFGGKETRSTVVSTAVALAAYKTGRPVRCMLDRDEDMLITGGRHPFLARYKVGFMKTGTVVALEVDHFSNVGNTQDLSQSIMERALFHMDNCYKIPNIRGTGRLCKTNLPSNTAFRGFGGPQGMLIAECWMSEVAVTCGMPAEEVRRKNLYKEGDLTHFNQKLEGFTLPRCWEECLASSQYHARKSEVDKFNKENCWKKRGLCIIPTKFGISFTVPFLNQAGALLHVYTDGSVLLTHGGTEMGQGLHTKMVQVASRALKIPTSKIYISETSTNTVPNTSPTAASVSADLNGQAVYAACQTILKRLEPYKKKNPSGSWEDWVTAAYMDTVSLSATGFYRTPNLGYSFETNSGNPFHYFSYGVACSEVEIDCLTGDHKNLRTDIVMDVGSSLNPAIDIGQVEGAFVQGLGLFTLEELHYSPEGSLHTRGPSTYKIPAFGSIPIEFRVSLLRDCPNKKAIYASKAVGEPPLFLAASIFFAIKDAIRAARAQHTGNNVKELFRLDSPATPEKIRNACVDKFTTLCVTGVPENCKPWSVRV

Turning to `CCCCCCSc1nc(N)cc(O)n1`, the IC50 entry in test [1] is “Not Active”. Compound `CC1CSc2nc3nc(O)nc-3c(O)n2C1` (stereo not drawn) came in with a Ki in test [2] above 100 µM. For the compound `O=c1nc2[nH]c(=S)[nH]c2c2n1CCS2`, the inhibitory constant (Ki) in test [2] was 1.86 µM. `Oc1nc2nnnc-2c2n1CCCS2` had a Ki in test [2] above 100 µM. In test [2], `CCCCCNc1nc2nc[nH]c2c(=O)[nH]1` displayed an IC50 of 28.3 µM and a Ki of 25.7 µM. Compound `CCCCCSc1nc(N)c(NC=O)c(=O)[nH]1` displayed an IC50 in test [2] above 100 µM. Take `CCCCCCOC(=O)C(=O)Nc1nc[nH]c1C(N)=O`: in test [2], the IC50 amounted to 1.11 µM and affinity was put at a Ki of 0.26 µM. `CSc1nc2nc(-c3ccccc3)[nH]c2c(=O)[nH]1` returned a Ki in test [2] of 5.7 µM. Still for that read-out and setting: the same measure for `O=c1[nH]c2nc(SCc3ccccc3)[nH]c(=O)c2[nH]1`: 4.49 µM; for `Oc1nc2nc(O)n3c(c-2n1)SCC3`: 1.26 µM.

In test [2], `CCCCSc1nc2nc[nH]c2c(=O)[nH]1` gave an IC50 of 3.88 µM and a Ki of 0.176 µM. In test [2], `CCCCCOC(=O)C(=O)Nc1[nH]cnc1C(N)=O` gave an IC50 of 1.92 µM and a Ki of 1.04 µM. As for `Oc1nc2nc(-c3ccccc3)nc-2c2n1CCCS2`, the affinity in test [2], expressed as Ki, was 93 µM. Still for that read-out and setting: next, `Oc1c2nc(S)nc-2nc2n1CCCS2`: 131 µM.

As to `CCCCOC(=O)C(=O)Nc1nc[nH]c1C(N)=O`, in test [2], the midpoint of inhibition, the IC50, lay at 4.29 µM and the Ki amounted to 1.06 µM. Regarding `CCCCSc1nc(N)c(NC=O)c(=O)[nH]1`, the IC50 in test [2] is above 100 µM. Consider `CCCCCSc1nc(N)cc(O)n1`, for which the IC50 result in test [1] is “Not Active”. In test [2], `CCc1nc(O)c2c[nH]nc2n1` returned an IC50 above 100 µM. As to `CC1CSc2nc3nc(S)nc-3c(O)n2C1` (stereo not drawn), the Ki in test [2] is above 100 µM. In test [3], `Oc1nc2nc(S)nc-2c2n1CCCS2` had a Ki of 0.89 µM. The compound `CCCC(=O)Nc1nc2nc[nH]c2c(=O)[nH]1` showed a half-maximal inhibitory concentration (IC50) in test [2] above 100 µM.

Take `CCCCCC(=O)Nc1nc(O)c2[nH]cnc2n1`: the IC50 entry in test [1] is recorded as “Not Active”. Consider `O=c1[nH]c(=S)[nH]c2nc(-c3ccccc3)[nH]c12`, for which the Ki in test [2] came out at 2.07 µM. In test [2], `CCCCNc1nc(O)c2[nH]cnc2n1` registered an IC50 of 25.5 µM and a Ki of 17.7 µM. In turn, `O=c1[nH]c2nc(S(=O)(=O)Cc3ccccc3)[nH]c(=O)c2[nH]1` returned a Ki in test [2] of 77.8 µM. Take `CCCCCc1nc2n[nH]cc2c(=O)[nH]1`: in test [2], the IC50 is above 100 µM.

On to `O=S1(=O)CCCn2c1nc1nc(O)nc-1c2O`, for which, in test [1], the Ki result is on record as “Not Active”.

On to `CCCCCCSc1nc(O)c2[nH]c(O)nc2n1`, for which the Ki in test [2] stood at 0.16 µM. Turning to `CCCCc1nc(O)c2c[nH]nc2n1`, the IC50 in test [2] is above 100 µM.

For `CCCCSc1nc(N)cc(O)n1`, the IC50 entry in test [1] is reported as “Not Active”. In test [2], `CCCCCCSc1nc2nc(-c3ccccc3)[nH]c2c(=O)[nH]1` had a Ki of 0.48 µM. In turn, `Oc1nc2nc3n(c(O)c-2n1)CCS3` displayed a Ki in test [2] of 40.3 µM. For the compound `CCCCCC(=O)Nc1nc[nH]c1C(N)=O`, in test [2], 12.6 µM corresponded to half-maximal inhibition (IC50) and the affinity, expressed as Ki, was 2.56 µM. In test [2], `Oc1nc2nc(O)n3c(c-2n1)SCCC3` registered a Ki of 0.33 µM. For `CCCCC(=O)Nc1nc(O)c2[nH]cnc2n1`, in test [1], the IC50 result is “Not Active”.

With `Oc1c2nc(S)nc-2nc2n1CCS2`, the affinity in test [2], expressed as Ki, was 24.4 µM. In turn, `CCCCCCSc1nc(N)c(NC=O)c(=O)[nH]1` registered an IC50 in test [2] above 100 µM.

As for `CCCc1nc2n[nH]cc2c(=O)[nH]1`, the IC50 in test [2] is above 100 µM. In test [2], `CCCCCCNc1nc(O)c2[nH]cnc2n1` came in with an IC50 of 30.5 µM and a Ki of 32.1 µM. `Oc1nc2nc3n(c(O)c-2n1)CCCS3` came in with a Ki in test [2] of 66.8 µM.
